Data as given in patent US9290481B2, “Monocyclic heteroaryl cycloalkyldiamine derivatives” (NOVARTIS AG, priority 2012, dated 2016).

Legend:
OCl-Ly3 cells = test: B-cell lymphoma cell proliferation (WST-1 assay), OCl-Ly3; type: cell-based; settings: 4 days of incubation
Protocol: Cell proliferation was determined using the WST-1 assay (Roche, Mannheim, Germany), which measures the metabolic activity of the cells. […] The cell proliferation reagent WST-1 (10 μl/well) was added to the cells for 1-2 hours depending on the cell type which were cultured in 200 μl of medium. The absorbance was then measured with an enzyme-linked immunosorbent assay plate reader at a wavelength of 450 nm.

OCl-Ly10 cells = test: B-cell lymphoma cell proliferation (WST-1 assay), OCl-Ly10; type: cell-based; settings: 72 h, 3 days of incubation
Protocol: Cell proliferation was determined using the WST-1 assay (Roche, Mannheim, Germany), which measures the metabolic activity of the cells. Briefly, 5×10^5 TMD-8, OCl-Ly3, and OCl-Ly10 cells/well and 10×10^5 HBL-1 cells/well were seeded in triplicate in 96-well plates and were incubated with various concentrations of compounds to be tested for 3 days. The cell proliferation reagent WST-1 (10 μl/well) was added to the cells for 1-2 hours depending on the cell type which were cultured in 200 μl of medium. The absorbance was then measured with an enzyme-linked immunosorbent assay plate reader at a wavelength of 450 nm.

GI50 (OCl-Ly3 cells): No inhibition | GI50 (OCl-Ly10 cells): 25 nM
Structure (SMILES): NC(=O)c1nnc(N[C@@H]2CCCC[C@@H]2N)nc1Nc1cccc2cc[nH]c12 [Example 1.1, 3-((1R,2S)-2-Amino-cyclohexylamino)-5-(1H-indol-7-ylamino)-[1,2,4]triazine-6-carboxylic acid amide]
